In EP0492902A1, “Substituted pyridine derivatives for use in the treatment of glaucoma” (MERCK SHARP & DOHME LTD., priority 1990, dated 1992):
Where a name gives a salt, the structure may show the parent alone.

Experiment: Change in intraocular pressure (IOP) after administration of compound
Format: in vivo

## Clc1cccc(C2CN3CCC2CC3)n1 (stereo not shown) [Description D, 3-[2-(6-Chloropyridin)yl]-1-azabicyclo[2.2.2]octane Hydrogen Oxalate]
Concentration 0.5%
  Change in IOP (Maximum mmHg change in intraocular pressure): -3.0 mmHg

## CCOc1cccc(C2CN3CCC2CC3)n1 (stereo not shown) [Description A, 3-[2-(6-Ethoxypyridin)yl]-1-azabicyclo[2.2.2]octane Hydrogen Oxalate]
Concentration 0.05%
  Change in IOP (Maximum mmHg change in intraocular pressure): -3.0 mmHg

## COc1cccc(C2CN3CCC2C3)n1 (stereo not drawn) [Description B, Endo-3-[2-(6-methoxypyridin)yl]-1-azabicyclo[2.2.1]heptane Hydrogen Oxalate]
Concentration 0.05%
  Change in IOP (Maximum mmHg change in intraocular pressure): -4.5 mmHg

## COc1cccc(C2CN3CCC2CC3)n1 (stereo not shown) [Description C, 3-[2-6-Methoxypyridin)yl]-1-azabicyclo[2.2.2]octane Dihydrochloride]
Concentration 0.05%
  Change in IOP (Maximum mmHg change in intraocular pressure): -3.0 mmHg
